Measured values published in US20200270588A1, “GLUCOSYL TRANSFERASE POLYPEPTIDES AND METHODS OF USE” (Syngenta Participations AG, priority 2017, published 2020).
Several values for one entry are separate records, joined by “and”; a condition that tells them apart may be missing. Equal entries are not always repeated.

How the values were obtained:
Type in all cases: biochemical
[1] = biological target: T1, SEQ ID 35, mutant bx-type glucosyl transferase (Zea mays, UniProt Q8W2B7, A437P); experiment: LC/MS glucosyl transferase assay (glucoside peak area), purified enzyme; details: about 60 min, ~15 pmol enzyme, relative quantification only
T1 construct: 35; 3.66E+05; 8.20E+07; 5.96E+06; His tag; made in house

[2] = system: SEQ ID 45, mutant bx-type glucosyl transferase; experiment: as above; details: about 60 min, ~15 pmol enzyme, nd = not detectable
[3] = system: SEQ ID 43, mutant bx-type glucosyl transferase; experiment: as above; details: about 60 min, ~15 pmol enzyme, nd = not detectable
[4] = system: rye bx-like glucosyl transferase (SEQ ID No 11); experiment: UDP-Glo glucosyl transferase assay, purified enzyme; details: herbicide V; close to the detection limit
Experimental: (§1) Glucosyl transferase activity is assayed via measurement of acceptor substrate-dependent production of UDP from ultrapure UDP-glucose using the Promega UDP-Glo™ method and according to the manufacturer's instructions. Assays are run in 96 well microtiter plates.
(§2) Enzyme, typically at a stock concentration of ˜2 mg/ml is diluted to an appropriate concentration in 50 mM K^+ Hepes buffer at pH7.5 containing 0.5 mg/mL bovine serum albumin (BSA) and 5 ul aliquots of this diluted enzyme added to each well of a Perkin Elmer white ½ area 96 well plate. […] Assays are run for an appropriate time (usually 10 to 60 min) so that the amount of UDP formed lies within the most nearly linear part of the UDP standard curve and are stopped with the addition and mixing of 25 ul UDP-Glo™ detection reagent (prepared as described below). Plates are then incubated at room temperature for 60 minutes and then read in a luminescence plate reader (Perkin Elmer Envision 2130 Multilabel Reader). A UDP standard curve is run alongside each set of assays and reagent blank control assays run with DMSO in place of test herbicide. Typically, 300 pmol of UDP corresponds to a Relative Luminescence Unit (RLU) reading of about 1.5E7 and the response curve between 0 and 600 pmol is fitted to a polynomial function (see for example FIG. 2).
(§3) The UDP-Glo™ reagents are made up and used according to the manufacturer's instructions. Thus, Nucleotide Detection Buffer and ATP are combined to make nucleotide detection reagent (NDR) dispensed into aliquots and frozen to be freshly thawed before use.
(§4) Km and kcat values in respect of UDP-glucose are derived by carrying out experiments to measure initial rates over a suitable range of concentrations of UDP glucose out at a fixed near saturating concentration of acceptor substrate. Best fit values of kcat, Km and kcat/Km are obtained by direct fitting of the data to the Michaelis-Menten equation using Graphpad Prism™ software.
(§5) DNA sequences, optimized for E. coli codon usage, corresponding to SEQ IDs 1-15, encoding BX8 and BX9 orthologue polypeptides derived from a range of species (as depicted in FIG. 1) were synthesized by Genewiz (South Plainfield, USA) with 5′ NdeI and 3′ XhoI restriction sites. The various orthologues were synthesized with either a N-terminal 6×His purification tag or C-terminal 6×His purification tag (i.e. tried both ways to achieve best expression of activity) and cloned into the E. coli expression plasmid pET24a (Novagen) via the NdeI and XhoI restriction sites. Expression, purification and assay was as described in Example 1.
(§6) Assays were carried out as described in Example 1. Partly purified C-terminally his tagged w/t Larkspur enzyme (SEQ ID No 10 with a 6 amino acid C-terminal tag) catalyzed glucosyl transfer to herbicide V at a rate estimated to be about 0.0065/s/pmol at 1 mM herbicide V. The similarly-tagged w/t bx-like enzymes from rye (SEQ ID No 11) and from wheat (SEQ ID No 4) were also active but only at levels close to the detection limit at ˜0.0015/s/pmol. Further examples of assay results from further experiments are depicted in Table 14. All of the proteins were C-terminally his tagged versions of the sequences referenced except for the Zea mays bx8 SEQ ID NO: 2 which was N-terminally his tagged.

[5] = system: Larkspur bx glucosyl transferase (SEQ ID NO 10); experiment: as above; details: 1 mM herbicide V
Experimental: as §1, §2, §3, §4, §5, §6

T1 sequence (Q8W2B7 whole entry A437P): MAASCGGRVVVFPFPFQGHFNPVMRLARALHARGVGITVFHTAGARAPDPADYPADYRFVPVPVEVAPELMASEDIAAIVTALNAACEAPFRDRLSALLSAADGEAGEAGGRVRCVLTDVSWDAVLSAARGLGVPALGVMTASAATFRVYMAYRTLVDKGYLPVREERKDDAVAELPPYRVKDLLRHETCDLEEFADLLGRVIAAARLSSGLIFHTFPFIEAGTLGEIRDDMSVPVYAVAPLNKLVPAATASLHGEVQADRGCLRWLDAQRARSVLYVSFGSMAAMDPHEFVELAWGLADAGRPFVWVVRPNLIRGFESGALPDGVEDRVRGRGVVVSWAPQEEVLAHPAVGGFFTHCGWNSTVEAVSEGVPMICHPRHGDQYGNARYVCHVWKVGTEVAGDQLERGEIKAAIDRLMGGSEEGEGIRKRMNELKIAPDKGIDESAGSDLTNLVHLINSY

## CN1CC(O)N(c2cc(C(F)(F)F)ccn2)C1=O (centres unmarked) [Compound V]
[1]
  integrated peak area of beta-glucoside product: 5.96E+06 and 4.40E+06
[2]
  integrated peak area of beta-glucoside product: 1.56E+05 and 9.51E+04
[3]
  integrated peak area of beta-glucoside product: 3.88E+05 and 2.26E+05
[4]
  rate of glucosyl transfer: ~0.0015 s⁻¹ pmol⁻¹
[5]
  rate of glucosyl transfer: about 0.0065 /s/pmol
